Measured values reported in patent US20260285857A1, “BICYCLIC AND HETEROCYCLIC AMIDE COMPOUNDS” (priority 2024, published 2026).

System: immunoglobulin light chain protein WIL-FL T46L
Test: Differential scanning fluorimetry (thermal shift) assay
Type: binding
Details: temperature shift [Tm]compound-[Tm]vehicle, recombinant WIL-FL T46L

Row | SMILES | DSF (Table B) | DSF (Table A)
1 | Cc1cc(N2CC[C@](C)(c3ccccc3)C2)cn2nc(C(=O)N3CCC4(CCC(c5cccc(C(=O)O)n5)C4)C3)nc12 (stereo partly drawn) [Compound 640, 6-[2-[8-methyl-6-[(3R)-3-methyl-3-phenyl-pyrrolidin-1-yl]-[1,2,4]triazolo[1,5-a]pyridine-2-carbonyl]-2-azaspiro[4.4]nonan-8-yl]pyridine-2-carboxylic acid] | ***** (>2.5° C.=*****) | –
2 | Cc1cc(N2CC[C@](C)(c3ccccc3)C2)cn2nc(C(=O)NC3C4CCN(c5cccc(C(=O)O)n5)CC43)nc12 (stereo partly drawn) [Compound 685, 6-(7-(8-methyl-6-((R)-3-methyl-3-phenylpyrrolidin-1-yl)-[1,2,4]triazolo[1,5-a]pyridine-2-carboxamido)-3-azabicyclo[4.1.0]heptan-3-yl)picolinic acid] | ***** (>2.5° C.=*****) | –
3 | CNC(=O)c1nc2c(CNC(C)=O)cc(N3CC[C@](C)(c4ccccc4)C3)cn2n1 [Compound 348] | – | ***** (>2.5° C.=*****)
4 | Cc1cc(N2CC[C@](C)(c3ccccc3)C2)cn2nc(C(=O)NC3CC4(C3)CC(N3CC5C(C3)C5C(=O)O)C4)nc12 (some centres unmarked) [Compound 364] | – | ***** (>2.5° C.=*****)
5 | Cc1cc(N2CC[C@](C)(c3ccccc3)C2)cn2nc(C(=O)NC3(C)CCNC3)nc12 (some centres unmarked) [Compound 189] | – | ***** (>2.5° C.=*****)
6 | Cc1cc(N2CC[C@](C)(c3ccc(F)cc3)C2)cn2nc(C(=O)N3CC[C@@]4(CCN(c5cccc(C(=O)O)n5)C4)C3)nc12 [Compound 429] | – | ***** (>2.5° C.=*****)
7 | Cc1cc(N2CC[C@](C)(c3ccccc3)C2)cn2nc(C(=O)N3CC4CN(c5ccnc(C(=O)O)c5)CC4C3)nc12 (some centres unmarked) [Compound 278] | – | ***** (>2.5° C.=*****)
8 | Cc1cc(N2CC[C@](C)(c3ccccc3)C2)cn2nc(C(=O)N3CC[C@@]4(CCN(C(=O)C56CCC(C(=O)O)(C5)C6)C4)C3)nc12 [Compound 713] | ***** (>2.5° C.=*****) | –
9 | Cc1cc(N2CCC(C)(c3nnn(C)n3)C2)cn2nc(C(=O)N3C[C@@H]4CN(c5cccc(C(=O)O)n5)C[C@@H]4C3)nc12 (some centres unmarked) [Compound 35, 6-[5-[8-methyl-6-[3-methyl-3-(2-methyltetrazol-5-yl)pyrrolidin-1-yl]-[1,2,4]triazolo[1,5-a]pyridine-2-carbonyl]-1,3,3a, 4,6,6a-hexahydropyrrolo[3,4-c]pyrrol-2-yl]pyridine-2-carboxylic acid] | – | *** (>1-1.5° C.=***)
10 | COc1cc(N2CC[C@](C)(c3ccccc3)C2)cn2nc(C(=O)N3CC[C@@]4(CCN(c5cccc(C(=O)O)n5)C4)C3)nc12 [Compound 294] | – | ***** (>2.5° C.=*****)
11 | COc1cc(N2CCC3(CCN(C(=O)c4nc5c(C)cc(N6CC[C@](C)(c7ccccc7)C6)cn5n4)C3)C2)cc(C(=O)O)n1 (some centres unmarked) [Compound 619] | ***** (>2.5° C.=*****) | –
12 | Cc1cc(OC[C@H](C)c2ccccc2)cn2nc(C(=O)N3CCC(Cc4ccc(C(=O)O)nc4)CC3)nc12 [Compound 304] | – | ***** (>2.5° C.=*****)
13 | CCS(=O)(=O)Nc1n[nH]c(C2C3(CN)COC2(c2nc4c(C)cc(N5CC[C@](C)(c6ccccc6)C5)cn4n2)C3)n1 (some centres unmarked) [Compound 548] | ***** (>2.5° C.=*****) | –
14 | Cc1cc(N2CC[C@](C)(c3ccccc3)C2)cn2nc(C(=O)NCCC(C)(C)O)nc12 [Compound 130] | – | ***** (>2.5° C.=*****)
15 | Cc1cc(N2CC[C@](C)(c3ccccc3)C2)cn2nc(C(=O)NC3CNC(C)(C(=O)O)C3)nc12 (some centres unmarked) [Compound 179] | – | ***** (>2.5° C.=*****)
16 | CNC(=O)c1nc2c(C#N)cc(N3CC[C@](C)(c4ccccc4)C3)cn2n1 [Compound 338] | – | * (0-0.5° C.=*)
17 | Cc1cc(N2CC[C@](C)(c3ccccc3)C2)cn2nc(C34CC(CO3)C4c3nc(N)nn3S(=O)(=O)C3CC(C)(C(=O)O)C3)nc12 (some centres unmarked) [Compound 566] | ***** (>2.5° C.=*****) | –
18 | Cc1cc(N2CC[C@](C)(c3ccccc3)C2)cn2nc(C(=O)N3CCN(S(C)(=O)=O)CC3)nc12 [Compound 144] | – | ***** (>2.5° C.=*****)

Row | SMILES | DSF (Table B) | DSF (Table A)
19 | CCc1cc(N2CC[C@](C)(c3ccccc3)C2)cn2nc(C(=O)NC)nc12 [Compound 339] | – | ***** (>2.5° C.=*****)
20 | CCC1(c2ccccc2)CN(c2cc(C)c3nc(C(=O)N4CCC5(CCN(c6cccc(C(=O)O)n6)C5)C4)nn3c2)C1 (centres unmarked) [Compound 394] | – | ***** (>2.5° C.=*****)
21 | CCC1(c2ccccc2)CN(c2cc(C)c3nc(C(=O)N4CC5CN(c6cccc(C(=O)O)n6)CC5C4)nn3c2)C1 (centres unmarked) [Compound 393] | – | ***** (>2.5° C.=*****)
22 | Cc1cc(N2CC[C@](C)(c3ccccc3)C2)cn2nc(C34CC(C#N)(CO3)C4)nc12 [Compound 464, (R)-1-(8-methyl-6-(3-methyl-3-phenylpyrrolidin-1-yl)-[1,2,4]triazolo[1,5-a]pyridin-2-yl)-2-oxabicyclo[2.1.1]hexane-4-carbonitrile] | ***** (>2.5° C.=*****) | –
23 | Cc1noc(C2(C)CCN(c3cc(C)c4nc(C(=O)N5C[C@@H]6CN(c7cccc(C(=O)O)n7)C[C@@H]6C5)nn4c3)C2)n1 (some centres unmarked) [Compound 300] | – | *** (>1-1.5° C.=***)
24 | Cc1cc(N2CC[C@](C)(c3ccccc3)C2)cn2nc(C(=O)N3CCC(Nc4cccc(C(=O)O)n4)C3)nc12 (some centres unmarked) [Compound 616] | ***** (>2.5° C.=*****) | –
25 | Cc1cc(N2CC[C@](C)(c3ccccc3)C2)cn2nc(C(=O)N[C@@H](C)CO)nc12 [Compound 139] | – | ***** (>2.5° C.=*****)
26 | Cc1cc(N2CC[C@](C)(c3ccccc3)C2)cn2nc(C34CC(CO3)C4c3nc(NC(=O)c4cccnc4C(=O)O)n[nH]3)nc12 (some centres unmarked) [Compound 558] | ***** (>2.5° C.=*****) | –
27 | CNC(=O)c1nc2c(C)cc(N3CC[C@](c4ccccc4)(C(F)F)C3)cn2n1 [Compound 328] | – | **** (>1.5-2.5° C.=****)
28 | Cc1cc(N2CC[C@](C)(c3ccccc3)C2)cn2nc(C(=O)N[C@H]3[C@@H]4CN(c5cccc(C(=O)O)n5)C[C@@H]43)nc12 [Compound 628] | ***** (>2.5° C.=*****) | –
29 | Cc1cc(N2CC[C@](C)(c3ccccc3)C2)cn2nc(C(=O)NC34COC(C#N)(C3)C4)nc12 [Compound 127] | – | ***** (>2.5° C.=*****)
30 | Cc1cc(N2CC[C@](C)(c3ccccc3)C2)cn2nc(C(=O)NC3CNC(C(F)(F)F)C3)nc12 (some centres unmarked) [Compound 203] | – | ***** (>2.5° C.=*****)
31 | Cc1ccn(C2(C)CCN(c3cc(C)c4nc(C(=O)N5CC[C@@]6(CCN(c7cccc(C(=O)O)n7)C6)C5)nn4c3)C2)n1 (some centres unmarked) [Compound 745] | *** (>1-1.5° C.=***) | –
32 | Cc1cc(N2CC[C@](C)(c3ccccc3)C2)cn2nc(C34CC(CO3)C4Cn3cc(C(N)=O)nn3)nc12 (some centres unmarked) [Compound 92] | – | ***** (>2.5° C.=*****)
33 | Cc1cc(N2CC[C@](C)(c3ccccc3)C2)cn2nc(C34CC(CO3)C4c3nc(NS(=O)(=O)C4COC(C(=O)O)C4)n[nH]3)nc12 (some centres unmarked) [Compound 568] | ***** (>2.5° C.=*****) | –
34 | Cc1cc(N2CC[C@](C)(c3ccccc3)C2)cn2nc(C(=O)NC34COC(CN(c5cccc(C(=O)O)n5)C3)C4)nc12 (mixture of isomers) [Compound 690, 6-[1-[[8-methyl-6-[rac-(3R)-3-methyl-3-phenyl-pyrrolidin-1-yl]-[1,2,4]triazolo[1,5-a]pyridine-2-carbonyl]amino]-6-oxa-3-azabicyclo[3.2.1]octan-3-yl]pyridine-2-carboxylic acid] | ***** (>2.5° C.=*****) | –
35 | C[C@]1(c2ccccc2)CCN(c2cc(CO)c3nc(C45CC(CO)(CO4)C5C(N)=O)nn3c2)C1 (some centres unmarked) [Compound 536] | ***** (>2.5° C.=*****) | –
